Key:
[1] = tested on: ChoRE-LUC (ChoRE driven transcription); experiment: ChoRE-LUC luciferase reporter assay in INS-1E ChoRE-LUC cells (BrightGlo, 24 h, 25 mM glucose); type: cell-based, Rat; conditions: 24 h treatment, 25 mM glucose media, 2% FBS
Method: For ReFRAME library screening, 10 nL of 2 mM DMSO stock concentrations of compound were prespotted into 5 µL of assay medium (RPMI with 2% FBS, 10 mM HEPES, 1 mM sodium pyruvate, 25 mM D-glucose (Sigma), and 1% penicillin/streptomcycin) in white 384-well plates (Grenier) using an Echo Acoustic Liquid Handler instrument (Labcyte) before the addition of INS-1E ChoRE-LUC cells (5000 cells in 45 µL assay medium per well). Cells were incubated for 24 h before 30 µL of BrightGlo Luciferase Assay solution (diluted 1:3 in water, Promega) was added to each well and luminescence signal values were recorded with an Envision plate reader (PerkinElmer). This protocol was used as the ReFRAME library was supplied from off-site and necessitated pre-spotting for efficient transfer of materials. For the screening of all other libraries, which was performed in-house, INS-1E ChoRE-LUC cells were plated in a white 384-well plate (5000 cells in 50 µL assay medium per well) and incubated for 24 h. 100 nL of DMSO stock concentrations of compound were transferred to each well using a Bravo instrument with a pintool head (Agilent). Cells were incubated for 24 h before 30 µL of BrightGlo Luciferase Assay solution was added to each well and luminescence signal values were recorded with an Envision plate reader.
(§1) Reporter activity and cell viability data was normalized to the DMSO control wells in each plate. Ten or twelve dose-response points and three biological replicates were used to determine dose-response curves using the four-parameter inhibitor dose-response curve fitting function in Prism software (Graphpad). All graphed data are plotted as the mean and the s.e.m denoted with error bars.
To establish a reliable assay with a suitable dynamic range for high-throughput screening, we first optimized the composition of the DNA regulatory sequences within the ChoRE-LUC reporter. […] To determine whether this combination of regulatory elements was robust enough to test general ChoRE activity, we constructed six pGL4-based luciferase reporter plasmids with different numbers and/or combinations of ChoRE and FOXO sequences from the promoter of the human TXNIP gene (Fig. 3a). The wild-type (WT) sequence represents the intact minimal promoter of the TXNIP gene (GRCh38.p14, chr1:145,996,639–145,996,759). The six plasmids were transiently transfected into INS-1E cells using cationic lipid-based transfection reagents and the induction of luciferase after 24 h in 25 mM glucose containing media was compared (Fig. 3b). In addition, we tested various glucose concentrations in the assay media to determine the concentration that results in the highest stimulation. […] The WT ChoRE-LUC construct was then used to generate an INS-1E stable cell line (INS-1E ChoRE-LUC) for screening in 384-well plate format. For high-throughput screening, the treatment time, serum percentage in media, and cell count per well were optimized further. The final assay design consisted of 5,000 INS-1E ChoRE-LUC cells per well of a 384-well plate in 25 mM glucose media supplemented with 2% FBS and a compound treatment time of 24 h.

[2] = Cytotoxicity screening (CellTiterGlo cell viability) in INS-1E ChoRE-LUC cells; type: cell-based; conditions: rat, 24 h treatment
Method: INS-1E ChoRE-LUC cells were plated in a white 384-well plate (5000 cells in 50 µL assay medium per well) and incubated for 24 h. 100 nL of DMSO stock concentrations of compound were transferred to each well using a Bravo instrument (Agilent) affixed with a pintool head (V&P Scientific). Cells were incubated for 24 h before 30 µL of CellTiterGlo Cell Viability Assay solution (diluted 1:6 in water, Promega) was added to each well and luminescence signal values were recorded with an Envision plate reader.
as §1

TXNIP expression = tested on: TXNIP expression; set-up: method as in PMID 28502980; conditions: compared with the ChoRE-LUC IC50 of this paper; read-out: previously reported measurement (IC50); cited from earlier work
[3] = Rattus norvegicus, INS-1E, 24 h

For `CCOC(=O)c1[nH]c2ccccc2c1NC(=O)/C=C/c1ccc(OC)c(OC)c1` [C175-0061], which IC50 [1, 3] is on record?
Its IC50 is 1.11 µM.

What about the IC50 at 24 h [2] of the same compound?
Its IC50 at 24 h is over 20 µM.

What does the source list for `CC[C@H](Nc1nc(NCc2cnc(C)cc2C)c2ncn(C(C)C)c2n1)[C@@H](C)O` [CYC065, reference compound]?
IC50 [1, 3]: 0.58 µM; IC50 at 24 h [2]: 0.85 µM

With `FC(F)(F)c1ccc(CN2CCC(F)(c3noc(-c4ccncc4)n3)C2)cc1` (stereo not shown) [SC41-0173] as the compound, how does the IC50 [1, 3] read?
The IC50 was 8.25 µM.

What about the IC50 at 24 h [2] of the same compound?
Its IC50 at 24 h is over 20 µM.

Which results are given for `Fc1cc(Br)ccc1CN1CCC(F)(c2noc(-c3ccncc3)n2)C1` (stereo not shown) [SC41-0178]?
IC50 [1, 3]: 9.83 µM; IC50 at 24 h [2]: > 20 µM

What does the source list for `Cc1cc(C)cc(C(=O)N2CC3(CC(CCOCc4cccc(F)c4)CO3)C2)c1` (stereo not shown) [SD60-0149]?
IC50 [1, 3]: 10.6 µM; IC50 at 24 h [2]: > 20 µM

What does the source list for `O=C(c1ccc(F)c(Cl)c1)N1CC2(CC(CCOCc3cccc(F)c3)CO2)C1` (stereo not shown) [SD60-0151]?
IC50 [1, 3]: 9.5 µM; IC50 at 24 h [2]: > 20 µM

With `CCS(=O)(=O)Oc1ccc(CN(Cc2ccc(F)cc2)C(=O)/C=C/c2ccccc2)cc1` [V029-2992] as the compound, how does the IC50 [1] read?
The IC50 was 2.9 µM.

And the IC50 [1, 3]?
The IC50 was 2.85 µM.

And the IC50 at 24 h [2]?
Its IC50 at 24 h is over 20 µM.

Which results are given for `CC(=O)c1ccc(OCCn2cnc3c(N)ncnc32)cc1` [W2476, reference compound]?
IC50 (TXNIP expression): 1.7 µM; IC50 [1]: 1.33 µM

For `O=C(NCc1ccco1)C(=Cc1ccc(Cl)c(Cl)c1)C(=O)NCc1ccco1` [Y070-0096], which IC50 [1, 3] is on record?
Its IC50 is 1.37 µM.

And the IC50 at 24 h [2]?
Its IC50 at 24 h is 3.98 µM.

From PMC10550954, “A high throughput screen for pharmacological inhibitors of the carbohydrate response element” (Scientific Data, 2023)
